According to patent US7642221B2, “Substituted thien-3-yl-sulphonylamino(thio)carbonyl-triazoline(ethi)ones” (Bayer Aktiengesellschaft, priority 1999, dated 2010):

How the values were obtained:
Type in all cases: in vivo
weeds [1] = assay: Post-emergence test, activity against weeds
Method: (§1) • Solvent: 5 parts by weight of acetone • Emulsifier: 1 part by weight of alkylaryl polyglycol ether
(§2) To produce a suitable preparation of active compound, one part by weight of active compound is mixed with the stated amount of solvent, the stated amount of emulsifier is added and the concentrate is diluted with water to the desired concentration.
(§3) Test plants which have a height of 5-15 cm are sprayed with the preparation of active compound such that the particular amounts of active compound desired are applied per unit area. The concentration of the spray liquor is chosen so that the particular amounts of active compound desired are applied in 1000 l of water/ha.
(§4) After three weeks, the degree of damage to the plants is rated in % damage in comparison to the development of the untreated control.
(§5) The figures denote: • 0%=no effect (like untreated control) • 100%=total destruction

Stellaria [2] = assay: Pre-emergence test/greenhouse; settings: greenhouse, 60 g of ai/ha, rated after three weeks
Method: as §1
(§6) To produce a suitable preparation of active compound, 1 part by weight of active compound is mixed with the stated amount of solvent, the stated amount of emulsifier is added and the concentrate is diluted with water to the desired concentration.
(§7) Seeds of the test plants are sown in normal soil. After about 24 hours, the soil is sprayed with the preparation of active compound such that the particular amount of active compound desired is applied per unit area. The concentration of the spray liquor is chosen so that the particular amount of active compound desired is applied in 1000 liters of water per hectare.
as §4
(§8) The figure denote: • 0%=no effect (like untreated control) • 100%=total destruction

Viola = assay: Pre-emergence test/greenhouse; settings: greenhouse, 60 g of ai/ha, rated after three weeks
Method: as §1, §6, §7, §4, §8

Echinochloa = assay: Pre-emergence test/greenhouse; settings: greenhouse, 60 g of ai/ha, rated after three weeks
Method: as §1, §6, §7, §4, §8

Cotton = assay: Pre-emergence test/greenhouse; settings: greenhouse, 60 g of ai/ha, rated after three weeks
Method: as §1, §6, §7, §4, §8

Bromus = assay: Pre-emergence test/greenhouse; settings: greenhouse, 60 g of ai/ha, rated after three weeks
Method: as §1, §6, §7, §4, §8

Chenopodium = assay: Pre-emergence test/greenhouse; settings: greenhouse, 60 g of ai/ha, rated after three weeks
Method: as §1, §6, §7, §4, §8

Solanum [3] = assay: Pre-emergence test/greenhouse; settings: greenhouse, 60 g of ai/ha, rated after three weeks
Method: as §1, §6, §7, §4, §8

Veronica = assay: Pre-emergence test/greenhouse; settings: greenhouse, 60 g of ai/ha, rated after three weeks
Method: as §1, §6, §7, §4, §8

weeds [4] = assay: Pre-emergence test, activity against weeds
Method: as §1, §6, §7, §4, §8

Avenafatua = assay: Post-emergence test/greenhouse; settings: greenhouse, 250 g of ai/ha, rated after three weeks
Method: as §1, §2, §3, §4, §5

Xanthium [5] = assay: Post-emergence test/greenhouse; settings: greenhouse, 250 g of ai/ha, rated after three weeks
Method: as §1, §2, §3, §4, §5

Alopecurus [6] = assay: Post-emergence test/greenhouse; settings: greenhouse, 250 g of ai/ha, rated after three weeks
Method: as §1, §2, §3, §4, §5

Setaria [7] = assay: Post-emergence test/greenhouse; settings: greenhouse, rated after three weeks
Method: as §1, §2, §3, §4, §5

Abutilon [8] = assay: Post-emergence test/greenhouse; settings: greenhouse, rated after three weeks
Method: as §1, §2, §3, §4, §5

Amaranthus [9] = assay: Post-emergence test/greenhouse; settings: greenhouse, rated after three weeks
Method: as §1, §2, §3, §4, §5

Sinapis [10] = assay: Post-emergence test/greenhouse; settings: greenhouse, 250 g of ai/ha, rated after three weeks
Method: as §1, §2, §3, §4, §5

Cyperus = assay: Pre-emergence test/greenhouse; settings: greenhouse, 250 g of ai/ha, rated after three weeks
Method: as §1, §6, §7, §4, §8

Xanthium [11] = assay: Pre-emergence test/greenhouse; settings: greenhouse, 250 g of ai/ha, rated after three weeks
Method: as §1, §6, §7, §4, §8

Alopecurus [12] = assay: Pre-emergence test/greenhouse; settings: greenhouse, 250 g of ai/ha, rated after three weeks
Method: as §1, §6, §7, §4, §8

Setaria [13] = assay: Pre-emergence test/greenhouse; settings: greenhouse, 250 g of ai/ha, rated after three weeks
Method: as §1, §6, §7, §4, §8

Galium = assay: Pre-emergence test/greenhouse; settings: greenhouse, 250 g of ai/ha, rated after three weeks
Method: as §1, §6, §7, §4, §8

Abutilon [14] = assay: Pre-emergence test/greenhouse; settings: greenhouse, 250 g of ai/ha, rated after three weeks
Method: as §1, §6, §7, §4, §8

Amaranthus [15] = assay: Pre-emergence test/greenhouse; settings: greenhouse, 250 g of ai/ha, rated after three weeks
Method: as §1, §6, §7, §4, §8

Sinapis [16] = assay: Pre-emergence test/greenhouse; settings: greenhouse, 250 g of ai/ha, rated after three weeks
Method: as §1, §6, §7, §4, §8

Wheat = assay: Post-emergence test/greenhouse; settings: greenhouse, 15 g of ai/ha, rated after three weeks
Method: as §1, §2, §3, §4, §5

Stellaria [17] = assay: Post-emergence test/greenhouse; settings: greenhouse, 15 g of ai/ha, rated after three weeks
Method: as §1, §2, §3, §4, §5

Solanum [18] = assay: Post-emergence test/greenhouse; settings: greenhouse, 15 g of ai/ha, rated after three weeks
Method: as §1, §2, §3, §4, §5

Maize = assay: Post-emergence test/greenhouse; settings: greenhouse, 15 g of ai/ha, rated after three weeks
Method: as §1, §2, §3, §4, §5

COC(=O)c1csc(C)c1S(=O)(=O)NC(=O)n1nc(OC(C)C)n(C2CC2)c1=O [Example 8]
100%: degree of damage to the plants, Viola (Viola) | degree of damage to the plants, Avenafatua (Avenafatua) | degree of damage to the plants, Xanthium (Xanthium [5]) | degree of damage to the plants, Alopecurus (Alopecurus [6]) | degree of damage to the plants, Setaria (Setaria [7]; 250 g of ai/ha) | degree of damage to the plants, Abutilon (Abutilon [8]; 250 g of ai/ha) | degree of damage to the plants, Amaranthus (Amaranthus [9]; 250 g of ai/ha)
very strong activity: activity against weeds (weeds [1]) | activity against weeds (weeds [4])
90%: degree of damage to the plants, Echinochloa (Echinochloa) | degree of damage to the plants, Bromus (Bromus) | degree of damage to the plants, Chenopodium (Chenopodium) | degree of damage to the plants, Solanum (Solanum [3])
95%: degree of damage to the plants, Stellaria (Stellaria [2]) | degree of damage to the plants, Veronica (Veronica) | degree of damage to the plants, Sinapis (Sinapis [10])
0%: degree of damage to the plants, Cotton (Cotton)

COC(=O)c1csc(C)c1S(=O)(=O)NC(=O)n1nc(C)n(C)c1=O [Example 10]
100%: degree of damage to the plants, Setaria (Setaria [13]) | degree of damage to the plants, Amaranthus (Amaranthus [15]) | degree of damage to the plants, Sinapis (Sinapis [16])
very strong activity: activity against weeds (weeds [1]) | activity against weeds (weeds [4])
95%: degree of damage to the plants, Cyperus (Cyperus) | degree of damage to the plants, Alopecurus (Alopecurus [12]) | degree of damage to the plants, Galium (Galium) | degree of damage to the plants, Abutilon (Abutilon [14]) | degree of damage to the plants, Setaria (Setaria [7]; 15 g of ai/ha) | degree of damage to the plants, Stellaria (Stellaria [17])
10%: degree of damage to the plants, Wheat (Wheat) | degree of damage to the plants, Maize (Maize)
90%: degree of damage to the plants, Xanthium (Xanthium [11]) | degree of damage to the plants, Abutilon (Abutilon [8]; 15 g of ai/ha) | degree of damage to the plants, Amaranthus (Amaranthus [9]; 15 g of ai/ha) | degree of damage to the plants, Solanum (Solanum [18])
